# From US10995087B2, “Crystal form of URAT1 inhibitor, and preparation method therefor” (MEDSHINE DISCOVERY INC., priority 2017, dated 2021)
# Where two headings read alike, the source gives them in different places.
# Legend:
# [1] = Solubility test of crystal form A in 9 vehicles (HPLC); format: physicochemical; conditions: for Solubility (4 hrs) / Solubility (24 hrs) / solubility at 4 h / solubility at 24 h: 37° C.; for Solubility (4 hrs) / solubility at 4 h: stirring 4 hrs; for Solubility (24 hrs) / solubility at 24 h: stirring 24 hrs; for solubility at 4 h / solubility at 24 h: thermodynamic from solid
# Protocol: 1. Preparation of diluent and mobile phase
# Diluent: 300 mL of pure water and 100 mL of pure acetonitrile were accurately measured, and mixed in a 1 L glass bottle, ultrasonically degassed for 10 minutes for use.
# Mobile phase A: 0.1% phosphoric acid aqueous solution
# For example: 2.0 mL of phosphoric acid was added into 2000 mL of water, and the mixture was ultrasounded for 10 minutes, mixed evenly, and naturally cooled to room temperature, as mobile phase A.
# Mobile phase B: acetonitrile.
# 2. Preparation of the control solution (using crystal form A per se as the control sample)
# 5 mg of crystal form A was accurately weighed and placed in a sample bottle, and 10 mL of diluent was added, and the mixture was ultrasounded for 5 minutes, naturally cooled to room temperature, mixed evenly, and labeled as working control solution STD-1.
# 5 mg of crystal form A was accurately weighed and placed in a sample bottle, and 10 mL of diluent was added, and the mixture was ultrasounded for 5 minutes, naturally cooled to room temperature, mixed evenly, and labeled as working control solution STD-2.
# 3. Preparation of linear solution
# The aforementioned working control solution STD-1 was successively diluted by 1 time, 10 times, 100 times, 1000 times and 2000 times, and was labeled as linear solutions L1, L2, L3, L4 and L5.
# 6 mg of crystal form A was accurately weighed respectively and added into 8 mL glass bottle, and then 3 mL of different solvents (0.1N hydrochloric acid solution, 0.01N hydrochloric acid solution, purified water, pH 3.8 buffer solution, pH 4.5 buffer solution, pH 5.5 buffer solution, pH 6.0 buffer solution, pH 7.4 buffer solution, pH 6.8 buffer solution) were accurately added to prepare the suspensions. A stirrer was added to the above suspensions, and the suspensions were fully stirred at 37° C. in dark. After stirring, the solids in the pH 7.4 buffer solution and the pH 6.8 buffer solution were completely dissolved, 6 mg of crystal form A were accurately weighed respectively, and added to the buffer solutions, and stirred fully again to prepare suspensions. After stirring for 4 hours and 24 hours, samples were taken and centrifuged. The solutions were filtered with a filter membrane and their concentrations were measured by HPLC.
# [2] = target: T1, uric acid transporter URAT1 (Homo sapiens, UniProt Q96S37); assay: Uptake cell inhibition experiment: URAT1-mediated 14C-uric acid uptake in HEK293A-URAT1 cells; format: cell-based
# T1 construct: expressed in transfected cells; host or cells: HEK293A, stably overexpressing URAT1; the empty vector control is HEK293A-pcDNA3.1
# T1 sequence (Q96S37 1-553): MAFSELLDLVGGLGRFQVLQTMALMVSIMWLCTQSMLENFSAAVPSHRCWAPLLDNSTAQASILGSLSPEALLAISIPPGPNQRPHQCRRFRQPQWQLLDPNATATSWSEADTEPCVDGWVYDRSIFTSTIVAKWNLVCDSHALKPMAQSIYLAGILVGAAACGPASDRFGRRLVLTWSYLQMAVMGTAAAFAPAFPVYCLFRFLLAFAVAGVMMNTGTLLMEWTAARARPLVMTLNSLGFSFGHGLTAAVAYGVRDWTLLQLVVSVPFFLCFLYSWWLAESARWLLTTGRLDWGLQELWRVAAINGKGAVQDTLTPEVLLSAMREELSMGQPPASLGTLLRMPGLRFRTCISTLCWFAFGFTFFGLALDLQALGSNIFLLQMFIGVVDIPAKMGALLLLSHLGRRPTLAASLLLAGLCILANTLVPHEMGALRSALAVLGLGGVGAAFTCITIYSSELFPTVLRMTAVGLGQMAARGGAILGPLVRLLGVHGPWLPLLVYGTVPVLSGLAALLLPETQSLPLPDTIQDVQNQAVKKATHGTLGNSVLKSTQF
# Protocol: 1) DMSO was used as the solvent of a 200-fold working solution, the storing solution was diluted to a 200-fold working solution at each administration concentration.
# 2) Hanks balanced salt solution (without Cl^−) was used as the solvent for the 2-fold working solution of transport protein URAT1, and then 200-fold working solution in 1) was diluted by 100 times to obtain a 2-fold working solution at each administration concentration. […]
# First, the culture medium in the culture plate was removed, and it was washed once with Hanks buffer salt solution (without Cl^−). […] The cell lysate was taken into a scintillation vial, and 3 mL of Aquasol-2 scintillation liquid was added, and the radioactive intensity in the sample was measured by using Tri-Carb 2910TR liquid scintillation instrument. […]
# Three repeats (i.e. n=3) were set for each administration concentration. Mean±standard error (SD) was calculated using statistical formulas in Microsoft® Excel 2010 software.
# According to the inhibitory rate (IR) for each transporter at each administration concentration, IC50 value, the effect of the compound on the transport activity of the drug transporter was calculated through Prism5.0 in combination with the Forecast function in Microsoft® Excel 2010 software.
# [3] = Plasma pharmacokinetics in male and female SD rats after single intravenous and intragastric administration; format: in vivo; conditions: rat; for clearance: read-out: plasma clearance rate; for Vd: read-out: steady state apparent volume of distribution (Vdss); for bioavailability: PO 4.0 mg/kg vs IV 2.0 mg/kg; for Cmax: read-out: peak concentration (Cmax); for Tmax: read-out: peak time Tmax
# Source text: Experimental purpose: Plasma pharmacokinetics of male and female SD rats after single intravenous injection and intragastric administration as well as repeated intragastric administration for 8 days for the compound of formula (I).
# 1. In this experiment, 12 SD rats, half males and half females, were provided by Beijing Vital River Laboratory Animal Technologies Co., Ltd., and were divided into 2 groups according to the similarity of their body weights, each group had 3 females and 3 males. The details of the administration protocol and blood collection protocol were shown in Table 5 and Table 6, respectively.
# All animals fasted every other night before the first day of administration and resumed to be fed 4 hours after the administration.
# Note: DMSO means dimethyl sulfoxide; HP-β-CD means hydroxypropyl-β-cyclodextrin; MC means methyl cellulose;
# IV means intravenous administration; PO means intragastric administration.
# Sample Collection and Analysis Methods
# 0.15 mL of blood samples from experimental animals were collected by jugular vein puncture, and immediately transferred to labeled centrifuge tubes containing K2-EDTA (0.5 M), and the plasma was separated by centrifugation within 30 minutes (centrifugation condition: 3000 g, 4° C., 15 minutes). Plasma concentrations were measured using a validated LC/MS/MS analysis method; plasma concentrations were processed using a non-compartment model of WinNonlin™ Version 6.3 (Pharsight, Mountain View, Calif.) pharmacokinetics software, and the pharmacokinetic parameters were calculated using the linear logarithmic trapezoid method.
# [4] = aqueous buffer, pH 4.5 buffer solution
# [5] = aqueous buffer, pH 5.5 buffer solution
# [6] = aqueous buffer, pH 6.0 buffer solution
# [7] = aqueous buffer, pH 6.8 buffer solution
# [8] = aqueous buffer, pH 7.4 buffer solution
# [9] = female SD rats, IV single, 2.0 mg/kg
# [10] = female SD rats, single intragastric (PO) 4.0 mg/kg
# [11] = male SD rats, IV single, 2.0 mg/kg
# [12] = male SD rats, single intragastric (PO) 4.0 mg/kg
compound,measurement,setting,value
CC(C)(Sc1nnc(Br)n1-c1sc(C2CC2)c2c1CCC(F)(F)C2)C(=O)O [crystal form A],Solubility (4 hrs),[1]; 0.01N HCl,<LOQ
same,Solubility (24 hrs),[1]; 0.01N HCl,<LOQ
same,Solubility (4 hrs),[1]; 0.1N HCl,<LOQ
same,Solubility (24 hrs),[1]; 0.1N HCl,<LOQ
same,solubility at 4 h,[1]; [4],1 µg/mL
same,solubility at 24 h,[1]; [4],1 µg/mL
same,solubility at 4 h,[1]; [5],66 µg/mL
same,solubility at 24 h,[1]; [5],66 µg/mL
same,solubility at 4 h,[1]; [6],214 µg/mL
same,solubility at 24 h,[1]; [6],204 µg/mL
same,solubility at 4 h,[1]; [7],1960 µg/mL
same,solubility at 24 h,[1]; [7],1840 µg/mL
same,solubility at 4 h,[1]; [8],3820 µg/mL
same,solubility at 24 h,[1]; [8],4050 µg/mL
same,Solubility in high pH buffer (conclusion),[1]; high pH buffer,good solubility
same,Solubility (4 hrs),[1]; pH 3.8 buffer solution,<LOQ
same,Solubility (24 hrs),[1]; pH 3.8 buffer solution,<LOQ
same,solubility at 4 h,[1]; Purified water,45 µg/mL
same,solubility at 24 h,[1]; Purified water,58 µg/mL
CC(C)(Sc1nnc(Br)n1-c1sc(C2CC2)c2c1CCC(F)(F)C2)C(=O)O [compound of formula (I)],IC50,"[2]; HEK293A-URAT1 cells, 2 min administration, n=3, read-out: IC50, inhibition of uptake of 14C-UA mediated by URAT1",34 nM
same,Inhibitory effect on URAT1 relative to reference compound lesinurad,[2]; ratio of IC50 values,about 177 times
same,AUC(0-inf),[3]; [9],5240 ± 544 ng·h/mL
same,half-life,"[3]; female SD rats, IV single, 2.0 mg/kg, read-out: elimination half-life (T1/2) (converted)",3.04 ± 1.12 h
same,clearance,[3]; [9],6.41 ± 0.656 mL/min/kg
same,Vd,[3]; [9],1.55 ± 0.408 L/kg
same,bioavailability,[3]; female SD rats,86%
same,AUC(0-inf),[3]; [10],9010 ± 4670 ng·h/mL
same,half-life,"[3]; female SD rats, single intragastric (PO) 4.0 mg/kg, read-out: elimination half-life (T1/2) (converted)",3.48 ± 0.835 h
same,Cmax,[3]; [10],2110 ± 1350 ng/mL
same,Tmax,[3]; [10],0.667 ± 0.289 h
same,AUC(0-inf),[3]; [11],3530 ± 723 ng·h/mL
same,half-life,"[3]; male SD rats, IV single, 2.0 mg/kg, read-out: T1/2 (converted)",2.52 ± 0.671 h
same,clearance,[3]; [11],9.76 ± 2.29 mL/min/kg
same,Vd,[3]; [11],1.65 ± 0.44 L/kg
same,bioavailability,[3]; male SD rats,35.6%
same,AUC(0-inf),[3]; [12],2510 ng·h/mL
same,half-life,"[3]; male SD rats, single intragastric (PO) 4.0 mg/kg, read-out: elimination half-life (T1/2) (converted)",1.72 h
same,Cmax,[3]; [12],1130 ± 483 ng/mL
same,Tmax,[3]; [12],0.417 ± 0.144 h
